The subject of one series is human plasma proteins. The series is described as follows: Plasma protein binding assay (equilibrium dialysis). The settings on record: 2 μM, dialysis 4 hours at 37° C. The series is classed as in vitro ADME. On the procedure: (§1) The dialysis device used in this example is a 96-well equilibrium dialysis plate (Cat #1006, HT Dialysis LLC, Gales Gerry, CT), and HTD 96 a/b dialysis membrane strips (Cat #1101, MWCO 12-14 kDa, HT Dialysis LLC). The dialysis device was assembled following the manufacturer's instructions.
(§2) The dialysis membrane strips were soaked in ultra-pure water at room temperature for approximately 1 hour. Each membrane strip containing 2 membranes was separated and soaked in 20:80 ethanol/water (v/v) for approximately 20 minutes, after which they were ready for used or were stored in the solution at 2-8° C. for up to a month. Prior to experiment, the membrane was rinsed and soaked for 20 minutes in ultra-pure water.
(§3) On the day of the experiment, the plasma was thawed by running under col tap water and centrifuged at 3220 rpm for 5 minutes to remove any clos. The pH value of the resulting plasma was checked. Only plasma with pH value with 7.0-8.0 could be used.
(§4) Both test and control compounds were dissolved in DMSO to achieve 10 mM stock solutions. Working solutions (400 μM) if test and control compounds were prepared by diluting 10μ of stock solutions with 240 μL of DMSO. Loading matrix solutions (2 μM) of both test and control compounds were prepared by diluting 5 μL of working solutions with 995 μL of blank matrix.
(§5) To prepare the loading matrix containing the test compound or control compounds, aliquots of either test compound working solutions or control compound working solution were spiked into blank matrix to achieve final test concentrations. The concentration of organic solvent in the final solutions were no more than 1% (normally 0.5%). The samples were mixture thoroughly before being used.
(§6) To prepare the time zero (T0) samples to be used for recovery determinations. 50 μL aliquots of loading matrix solution were transferred in triplicate to the sample collection plate. The samples were immediately matched with opposite blank buffer to obtain a final volume of 100 μL of 1:1 matrix/dialysis buffer (v/v) in each well. 500 μL of stop solution were added to these T0 samples. They were then stored at 2-8° C. pending further processes along with other post-dialysis samples.
(§7) To load the dialysis device, an aliquot of 150 μL of the loading matrix was transferred to the donor side of each dialysis well in triplicate, and 150 μL of the dialysis buffer was loaded to the received side of the well. The dialysis was placed in humidified incubator at 37° C. with 5% CO2 on a shaking platform that rated slowly (about 100 rpm) for 4 hours.
(§8) At the end of the dialysis, aliquots of 50 μL of samples were taken from both the buffer side and the matrix side of the dialysis deice. These samples were transferred into new 96-well plates (the sample collection plates). Each sample was mixed with an equal volume of opposite blank matrix (buffer or matrix) to reach a final volume of 100 μL of 1:1 matrix/dialysis buffer (v/v) in each well. All samples were further processed by adding 500 μL of stop solution containing internal standards. The mixture was vortexed and centrifuged at 4000 rpm for about 20 minutes. An aliquot of 100 μL of supernatant of all the samples were then removed for LC-MS/MS analysis.
(§9) The single blank samples were prepared by transferring 50 μL of blank matrix to a 96 well plate and adding 50 μL of blank PBS buffer to each well. The blank plasma must match the species of plasma used in the plasma side of the well. Then the matrix-matched samples were further processed by adding 500 μL of stop solution containing internal standards, following the same sample processing method as the dialysis samples.

Assay in series [1]: as above
The series is classed as in vitro ADME. The settings on record: human plasma, dialysis 4 hours at 37° C. On the procedure: as §1, §2, §3, §4, §5, §6, §7, §8, §9

Results on two compounds are retold here after patent US20220153746A1, “NITROGEN OXIDE-DONATING PDE-5 AND/OR PDE-6 INHIBITOR COMPOUNDS, AND USES THEREOF” (ILDONG PHARMACEUTICAL CO., LTD., priority 2020, published 2022).

By fraction unbound is commonly meant free concentration divided by total concentration. The low end stands for extensive binding, the high end for weak binding. `CCCc1nn(C)c2c(=O)[nH]c(-c3cc(S(=O)(=O)N4CC(CCCO)C4)ccc3OCC)nc12` [Compound 4, 5-(2-ethoxy-5-((3-(3-hydroxypropyl)azetidin-1-yl)sulfonyl)phenyl)-1-methyl-3-propyl-1,6-dihydro-7H-pyrazolo[4,3-d]pyrimidin-7-one]: the “% Bound” value in the series on human plasma proteins turned out to be 96.01%. Further, the fraction unbound at 4 h, 2 µM in series [1] was 0.0399.

In the case of `CCCc1nn(C)c2c(=O)[nH]c(-c3cc(S(=O)(=O)N4CC(CCCO[N+](=O)[O-])C4)ccc3OCC)nc12` [Compound 18, 3-(1-((4-ethoxy-3-(1-methyl-7-oxo-3-propyl-6,7-dihydro-1H-pyrazolo[4,3-d]pyrimidin-5-yl)phenyl)sulfonyl)azetidin-3-yl)propyl nitrate], the “% Bound” value in the series on human plasma proteins turned out to be 99.52%. This compound returned a free fraction (fraction unbound) at 4 h, 2 µM in series [1] of 0.0048.
